According to US10799478B2, “Treatment of androgen deprivation therapy associated symptoms” (priority 2014, dated 2020):

Legend:
Orx rats = assay: Orchidectomized Rat Assay; assay type: in vivo; conditions: for SV Weight, % Sham: once daily 2 months
ORX Wistar male rats = assay: In Vivo Study to Explore Direct Antagonist Effect of Example 1 in the Presence of TE; design: species or system rat; conditions: for Seminal Vesicle Wet Weights, Abs(Dif) − LSD / Prostate Weights, Abs(Dif) − LSD: vs TE alone; for Prostate Weight, % Sham / SV Weight, % Sham: 8 weeks
Experimental: Route of administration for all groups except TE is oral. TE is administered subcutaneously. At the end of 8 weeks of daily dosing, rats are euthanized, weighed & tissue harvested. Levator ani, prostates, and seminal vesicles are collected from each animal. Results are plotted as means±SE.

human Androgen receptor = target: T1, human Androgen receptor (Homo sapiens, UniProt P10275); assay: hAR binding affinity (Ki); conditions: comparison with R1881
T1 sequence (P10275 1-920): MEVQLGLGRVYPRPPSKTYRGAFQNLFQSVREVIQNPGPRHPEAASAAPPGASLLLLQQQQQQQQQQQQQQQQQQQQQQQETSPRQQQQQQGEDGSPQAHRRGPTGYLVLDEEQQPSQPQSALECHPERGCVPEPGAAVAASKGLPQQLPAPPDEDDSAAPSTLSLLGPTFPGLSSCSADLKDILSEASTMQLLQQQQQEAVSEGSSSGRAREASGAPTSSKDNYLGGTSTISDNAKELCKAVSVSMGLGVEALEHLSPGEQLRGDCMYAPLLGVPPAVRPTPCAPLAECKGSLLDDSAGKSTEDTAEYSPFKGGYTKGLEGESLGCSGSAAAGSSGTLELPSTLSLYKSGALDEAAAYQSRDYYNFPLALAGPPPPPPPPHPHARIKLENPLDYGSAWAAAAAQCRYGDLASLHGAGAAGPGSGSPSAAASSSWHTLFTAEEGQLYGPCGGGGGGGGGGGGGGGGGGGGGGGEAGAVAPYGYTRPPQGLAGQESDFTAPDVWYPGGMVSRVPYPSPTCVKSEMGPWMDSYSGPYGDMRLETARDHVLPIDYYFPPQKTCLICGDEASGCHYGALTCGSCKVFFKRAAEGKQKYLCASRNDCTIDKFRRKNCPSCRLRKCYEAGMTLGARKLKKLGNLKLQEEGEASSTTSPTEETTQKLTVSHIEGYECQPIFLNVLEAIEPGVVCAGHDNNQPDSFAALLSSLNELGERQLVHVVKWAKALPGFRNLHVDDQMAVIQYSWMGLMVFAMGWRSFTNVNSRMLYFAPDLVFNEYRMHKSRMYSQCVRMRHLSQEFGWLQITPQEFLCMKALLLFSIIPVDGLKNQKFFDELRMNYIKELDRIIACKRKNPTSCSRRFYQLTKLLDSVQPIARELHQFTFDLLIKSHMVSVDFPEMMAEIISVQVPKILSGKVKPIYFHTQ

in vivo = conditions: both, Sprague-Dawley, rat, in vivo, po
Experimental: (§1) Vehicle controls (15 rats/sex in main study and 5 rats/sex in recovery study) are given daily oral gavage dose of 5% Vitamin E TPGS, 1% hydroxyethylcellulose, 0.05% Dow Corning Antifoam 1510-US in purified water. Fifteen males and 15 females are assigned to each treatment main study group. Five males and 5 females are assigned to the recovery study for the vehicle control and 150 mg/kg/day groups. […] All administrations are given in a 15 mL/kg volume.

Sprague-Dawley rat = assay: in vivo; conditions: for Male group mean AUC0-24 hr near termination / Prostate weight (mean % decrease): rats, 6 months
Experimental: as §1

beagle dogs = assay: Four Week Oral Toxicity Study in Dogs; assay type: in vivo, dog
Experimental: […] One additional group of three animals/sex serves as the control and receives the vehicle, 80% PEG 3350/20% Vitamin E TPGS (v/v) via oral capsule. The test article or vehicle is administered to all groups via oral capsule, twice a day for 28 consecutive days, at a dose volume of 1.5 mL/kg/dose.
Observations for mortality, morbidity, injury, and the availability of food and water are conducted twice daily for all animals. Detailed clinical observations are conducted weekly. Body weights are measured and recorded the day after receipt, prior to randomization, and weekly during the study. Food consumption is measured and recorded weekly. Ophthalmoscopic examinations are conducted pretest and prior to the terminal necropsy. Physical examinations are conducted pretest. Neurological examinations are conducted during Weeks 1 and 4. ECG examinations are conducted twice prior to the initiation of dosing and prior to and approximately 2 hours (±15 minutes) after the morning test article administration on Days 3 and 26. […] The toxicokinetic parameters are determined for the test article from concentration-time data in the test species. At study termination, necropsy examinations are performed, organ weights are recorded, and testes, epididymis, and prostates are microscopically examined.

dogs = assay: 6 month treatment of dogs (Table 10); assay type: in vivo, dog; conditions: 6 months
healthy volunteers = assay: Treatment of healthy volunteers (12 weeks); assay type: in vivo, human; conditions: after 12 weeks in healthy volunteers
[1] = ORX + TE 1 mg/kg/d + Example 1 3 mg/kg/d po
[2] = ORX + TE 1 mg/kg/d + Example 1 3 mg/kg/d
[3] = ORX + TE 1 mg/kg/d + Example 1 10 mg/kg/d po
[4] = ORX + TE 1 mg/kg/d + Example 1 10 mg/kg/d
[5] = ORX + TE 1 mg/kg/d + Example 1 30 mg/kg/d

CC(C)OC(=O)N[C@H]1Cc2c(n(Cc3ccccn3)c3ccc(C#N)cc23)C1 (single isomer, unassigned) [Example 1]
LV-TA (cm2) ± SD (Orx rats; 1 mg/Kg/d): 0.3378 ± 7.08E−03 cm2
LV-TBMC (mg) ± SD (Orx rats; 1 mg/Kg/d): 1.54 ± 0.0256 mg
LV-TBMD (mg/cm3) ± SD (Orx rats; 1 mg/Kg/d): 507.4 ± 6.931 mg/cm3
SV Weight, % Sham (Orx rats; 1 mg/Kg/d po): 5.6 % Sham
LV-TA (cm2) ± SD (Orx rats; 3 mg/Kg/d): 0.362 ± 0.0138 ^ cm2
LV-TBMC (mg) ± SD (Orx rats; 3 mg/Kg/d): 1.79 ± 0.095 mg
LV-TBMD (mg/cm3) ± SD (Orx rats; 3 mg/Kg/d): 549 ± 15.965 mg/cm3
SV Weight, % Sham (Orx rats; 3 mg/Kg/d po): 5.5 % Sham
LV-TA (cm2) ± SD (Orx rats; 10 mg/Kg/d): 0.3521 ± 0.0125 ^ cm2
LV-TBMC (mg) ± SD (Orx rats; 10 mg/Kg/d): 1.7757 ± 0.0607 mg
LV-TBMD (mg/cm3) ± SD (Orx rats; 10 mg/Kg/d): 562.843 ± 16.104 mg/cm3
SV Weight, % Sham (Orx rats; 10 mg/Kg/d po): 6.0 % Sham
LV-TA (cm2) ± SD (Orx rats; 20 mg/Kg/d): 0.3563 ± 0.0102 ^ cm2
LV-TBMD (mg/cm3) ± SD (Orx rats; 20 mg/Kg/d): 529.357 ± 10.052 mg/cm3
SV Weight, % Sham (Orx rats; 20 mg/Kg/d po): 6.1 % Sham
Seminal Vesicle Wet Weights, Abs(Dif) − LSD (ORX Wistar male rats; ORX + Example 1 10 mg/kg/d without TE): 1.411
Prostate Weight, % Sham (ORX Wistar male rats; [1]): 42.7 % Sham
SV Weight, % Sham (ORX Wistar male rats; [1]): 53.5 % Sham
Prostate Weights, Abs(Dif) − LSD (ORX Wistar male rats; [2]): −0.11
Seminal Vesicle Wet Weights, Abs(Dif) − LSD (ORX Wistar male rats; [2]): −0.34
Prostate Weight, % Sham (ORX Wistar male rats; [3]): 30.3 % Sham
SV Weight, % Sham (ORX Wistar male rats; [3]): 42.0 % Sham
Prostate Weights, Abs(Dif) − LSD (ORX Wistar male rats; [4]): 0.036
Seminal Vesicle Wet Weights, Abs(Dif) − LSD (ORX Wistar male rats; [4]): 0.078
Prostate Weight, % Sham (ORX Wistar male rats; ORX + TE 1 mg/kg/d + Example 1 30 mg/kg/d po): 31.2 % Sham
Prostate Weights, Abs(Dif) − LSD (ORX Wistar male rats; [5]): 0.025
Seminal Vesicle Wet Weights, Abs(Dif) − LSD (ORX Wistar male rats; [5]): 0.536
prostate wet weight in mg normalized to body weight (ORX Wistar male rats; co-treatment with 1 mg/Kg TE): dose-dependent decrease
seminal vesicle wet weight in mg normalized to body weight, induced by TE alone (ORX Wistar male rats; combination with TE 1 mg/Kg-day and various doses of Example 1): trend in decreasing
biochemical binding affinity to the human Androgen receptor (human Androgen receptor): only modestly reduced
NOAEL (in vivo): < 15 mg/kg/day
morphologic findings in the testes (Sprague-Dawley rat; all dose levels (15, 150, 1500 mg/kg/day)): considered to be adverse
accumulation after multiple doses (Sprague-Dawley rat; any dose group up to Day 182): not observed
higher body weight than concurrent controls (Sprague-Dawley rat; females, end of treatment period): 22%
body weight change compared to control (Sprague-Dawley rat; males, end of treatment period): −12%
Male group mean AUC0-24 hr near termination (Sprague-Dawley rat; 15 mg/kg/day): 15902 ng·h/mL
Male group mean AUC0-24 hr near termination (Sprague-Dawley rat; 150 mg/kg/day): 34132 ng·h/mL
Prostate weight (mean % decrease) (Sprague-Dawley rat; 150 mg/kg/day): ↓ 30%
Male group mean AUC0-24 hr near termination (Sprague-Dawley rat; 1500 mg/kg/day): 82690 ng·h/mL
Prostate weight (mean % decrease) (Sprague-Dawley rat; 1500 mg/kg/day): ↓ 34%
increase of exposure with dose (beagle dogs; dogs given 6 and 60 mg/kg/day, plateau at 60 mg/kg/day): less than dose proportional
gender effect on exposure (beagle dogs; male vs female dogs): no gender effect
Prostate weight (mean % decrease) (dogs; 3 mg/kg/day): ↓ 63%
Prostate weight (mean % decrease) (dogs; 30 mg/kg/day): ↓ 66%
Prostate weight (mean % decrease) (dogs; 300 mg/kg/day): ↓ 75%
hematocrit (healthy volunteers): no significant changes
prostate specific antigen (PSA) (healthy volunteers): no significant changes
